Reference: patent publication US11795378B2, “Iron control composition, make, and use in carbonate stimulation” (King Fahd University of Petroleum and Minerals, priority 2019, dated 2023)

Assays:
[1] = 5% chelating agent, 3000 ppm ferric ions; cited from earlier work
[2] = Solubility and stability test of iron in concentrated HCl chelating agent formulations; assay type: physicochemical; conditions: 5 wt. % single chelating agent, 72° F. (22.2° C.)
Protocol: The solubility test was conducted at varying HCl and chelating agent concentrations. During the solubility test the concentration of HCl was set to either 20 wt. % (low) or 28 wt. % (high) concentration.
Each chelating agent was used alone with varied concentrations ranging from 1 to 10 wt %.
To the evaluate the capability of the generated formulation to sustain the iron in the solution without precipitation, 3000 ppm of iron was dissolved in the respective formulations, and, after that, the stability of the formulation as function of time was evaluated.
The effect of the pH on the performance of exemplary inventive formulations was evaluated by repeating the solubility and stability tests at varied pH values.

[3] = 20 wt. % HCl, 3000 ppm iron, 96 hours
[4] = 28 wt. % HCl at pH 5, 3000 ppm ferric ions, after 96 hours

| iron precipitation during stability evaluation [2, 3] | iron precipitation during stability evaluation [2, 4] | SMILES | pH up to which ferric ions are kept in solution [1] |
| --- | --- | --- | --- |
| no precipitation | precipitation | O=C(O)CC[C@@H](C(=O)O)N(CC(=O)O)CC(=O)O [GLDA, glutamic acid N,N-diacetic acid] | less than 3.0 |
| no precipitation | precipitation | O=C(O)CN(CCO)CCN(CC(=O)O)CC(=O)O [HEDTA, hydroxyethyl ethylenediamine triacetic acid] | – |
